Assay results from US6310247A, “7-aryl-6(Z)-heptatrienoic acid retinamides” (Hoffmann-LA Roche Inc., priority 1999, dated 2001).
Where two headings read alike, the source gives them in different places.

How the values were obtained:
ZR-75-1 cells = assay: Apoptosis: cell death detection by ELISA, ZR-75-1; assay type: cell-based, human; settings: for fold induction at 1 µM / fold induction at 3.3 µM / fold induction at 10 µM: Homo sapiens, read-out: Fold induction of apoptosis compared to no drug control
Description: ER+ breast carcinoma, human (ZR-75-1) obtained from ATCC (CRL 1500), were grown in Gibco's RPMI 1640 media supplemented with sodium pyruvate, 10% FBS and 13 ng/mL gentamicin. Cells were incubated at 37° C., 4.5% CO2 and 95.5% humidified air.
(§1) 2. Apoptosis: Cell death detection by ELISA:
(§2) Compounds of formula 1 were tested for the ability to cause apoptosis as follows:
(§3) Cells and media were collected, cells were pelleted, resuspended in 100 μl lysis buffer (50 mM Tris-Cl (pH=8.0), 20 mM EDTA, 1% NP-40e) and incubated 30 minutes at 4° C. to lyse. Cell debris was spun down and an aliquot (30 μl) of the […] was removed for protein determination and stored at -20° C. An additional 280 μl of lysis buffer, was added, mixed thoroughly and spun down at 14,000 RPM for 10 minutes at 4° C. An aliquot was removed (180 μl) and the sample was stored at -20° C. until testing.
(§4) A commercially available apoptosis detection kit, obtained from Boehringer Mannheim (Cat. No. 1544-674), was used as per the directions provided with the kit (Cell Death Detection ELISA). However, the protocol was modified in that a 1:40 to 1:100 dilution of sample was prepared, rather than the recommended 1:10 dilution, due to the increase in cell number used to prepare the sample extract and the subsequent increase in ELISA reactivity. The assay measures apoptosis by quantifying the amount of nucleosomal fragmentation from the extracts of cells treated with the test compounds (samples). These nucleosomal fragments, generated by the activation of endonucleases, are a known downstream effector of apoptosis. Antihistone antibodies are used to fix any nucleosomal fragments in the sample to the well of the microtiter plates. The sample is then incubated with anti-DNA antibodies conjugated to peroxidase and subsequently incubated with the peroxidase substrate, ABTS. The resulting colorimetric change is measured spectrophotometrically at 405/490nm.
(§5) The total protein content of each sample was determined for the purpose of normalizing the ELISA values to amount of sample loaded. Microplate assay protocol described in the instruction manual, for (Biorad DC Assay, Cat.#500-0116) section 5.2. The protein concentrations were calculated based upon a linear regression curve.
(§6) d) ELISA assay calculations
(§7) Relative ELISA O.D. readings are determined by subtracting the ELISA plate background O.D. value. No drug control O.D. value (lysis buffer only) was subtracted from sample O.D. value. A correction coefficient (CC), based on the sample protein concentration compared to no drug control, was determined to correct the sample O.D. following subtraction of the background O.D. (BCS O.D.). The fold increase over no drug control is calculated and normalized to the total protein concentration of the samples by multiplying against the correction coefficient.
(§8) To determine the fold increase in ELISA O.D., obtain the following O.D. measurements:
(§9) ELISA plate background--lysis buffer only (EPB);
(§10) no drug treated control--cell sample treated with DMSO (NDT);
(§11) drug treated sample--cell sample treated with a compound of formula 1 (DT) Subtract EPB from NDT (NDT-EPB) and DT (DT-EPB). The fold increase of the treated over the control is then (DT-EPB)/(NDT-EPB).
(§12) To determine the total protein concentration of the samples, obtain the total protein concentration in mg/ul calculated using standard linear regression formula (y=mx+b) based on BSA standards. B=ELISA background. Protein concentration (PC)(mg/ml)=(sample absorbance-b)/x.
(§13) Correction coefficient (cc) is (NDT)(PC)/(DT)(PC).
(§14) Determine fold increase of ELISA (FT) normalized to total PC:
(§15) nDT is DT×cc (which is DT O.D. normalized to PC)
(§16) nNDT is NDT×cc (which is NDT O.D. normalized to PC)
(§17) FI normalized to PC is nDT/nNDT.

RKO cells = assay: Apoptosis: cell death detection by ELISA, RKO (colorectal carcinoma); assay type: cell-based, human; settings: for fold induction at 1 µM / fold induction at 3.3 µM / fold induction at 10 µM: Homo sapiens, RKO, read-out: Fold induction of apoptosis compared to no drug control
Description: Colorectal carcinoma, human (RKO) obtained from Dr. Bernie Vogelstein, were grown in Gibco's Delbecco Minimum Essential media (DMEM), high glucose, supplemented with sodium pyruvate, 10% FBS and 13 ng/mL gentamicin. Cells were incubated at 37° C., 4.5% CO2 and 95.5% humidified air.
as §1, §2, §3, §4, §5, §6, §7, §8, §9, §10, §11, §12, §13, §14, §15, §16, §17

H1299 cells = assay: Apoptosis: cell death detection by ELISA, H1299 (lung large cell carcinoma); assay type: cell-based; settings: Homo sapiens, NCI-H1299, read-out: Fold induction of apoptosis compared to no drug control
Description: Lung, large cell carcinoma, human (H1299), obtained from ATCC (CRL-5803), were grown in Gibco's Delbecco Minimum Essential media (DMEM), high glucose, supplemented with sodium pyruvate, 10% FBS and 13 ng/mL gentamicin. Cells were incubated at 37° C., 4.5% CO2 and 95.5% humidified air.
as §1, §2, §3, §4, §5, §6, §7, §8, §9, §10, §11, §12, §13, §14, §15, §16, §17

[1] = tested on: ER+ and ER- breast carcinoma cells; assay: Induction of apoptosis in ER+ and ER- carcinoma cells (statements in words); assay type: cell-based, human; settings: 24-48 h
Description: as §1, §2, §3
A commercially available apoptosis detection kit, obtained from Boehringer Mannheim (Cat. No. 1544-674), was used as per the directions provided with the kit (Cell Death Detection ELISA). […] The assay measures apoptosis by quantifying the amount of nucleosomal fragmentation from the extracts of cells treated with the test compounds (samples). […] The resulting colorimetric change is measured spectrophotometrically at 405/490nm.
The total protein content of each sample was determined for the purpose of normalizing the ELISA values to amount of sample loaded. […] The protein concentrations were calculated based upon a linear regression curve. […]
Relative ELISA O.D. readings are determined by subtracting the ELISA plate background O.D. value. […] A correction coefficient (CC), based on the sample protein concentration compared to no drug control, was determined to correct the sample O.D. following subtraction of the background O.D. (BCS O.D.). The fold increase over no drug control is calculated and normalized to the total protein concentration of the samples by multiplying against the correction coefficient. […]
To determine the total protein concentration of the samples, obtain the total protein concentration in mg/ul calculated using standard linear regression formula (y=mx+b) based on BSA standards. […] Protein concentration (PC)(mg/ml)=(sample absorbance-b)/x. […]

SMILES: C/C(=C/C=C/C(C)=C/C(=O)Nc1ccc(O)cc1)c1cc(C(F)(F)F)cc(C(F)(F)F)c1 [N-(4-hydroxyphenyl)-(2E,4E,6Z)-7-[3,5-bis(trifluoromethyl)phenyl]-3,7-dimethyl-2,4,6-heptatrienamide]
- fold induction at 1 µM (ZR-75-1 cells; ZR-75-1, 24 h, 24 hrs): 2
- fold induction at 3.3 µM (ZR-75-1 cells; ZR-75-1, 24 h, 24 hrs): 2
- fold induction at 10 µM (ZR-75-1 cells; ZR-75-1, 24 h, 24 hrs): 3
- fold induction at 1 µM (ZR-75-1 cells; ZR-75-1, 48 h, 48 hrs): 2
- fold induction at 3.3 µM (ZR-75-1 cells; ZR-75-1, 48 h, 48 hrs): 19
- fold induction at 10 µM (ZR-75-1 cells; ZR-75-1, 48 h, 48 hrs): 15
- fold induction at 1 µM (ZR-75-1 cells; ZR-75-1, 72 h, 72 hrs): 2
- fold induction at 3.3 µM (ZR-75-1 cells; ZR-75-1, 72 h, 72 hrs): 69
- fold induction at 10 µM (ZR-75-1 cells; ZR-75-1, 72 h, 72 hrs): 67
- Induction of apoptosis (in words) (ZR-75-1 cells; after 48 hours): induces significant apoptosis
- fold induction at 1 µM (RKO cells; 24 hrs): 2
- fold induction at 3.3 µM (RKO cells; 24 hrs): 14
- fold induction at 10 µM (RKO cells; 24 hrs): 21
- fold induction at 1 µM (RKO cells; 48 hrs): 4
- fold induction at 3.3 µM (RKO cells; 48 hrs): 5
- fold induction at 10 µM (RKO cells; 48 hrs): 23
- fold induction at 1 µM (RKO cells; 72 hrs): 1
- fold induction at 3.3 µM (RKO cells; 72 hrs): 1
- fold induction at 10 µM (RKO cells; 72 hrs): 15
- Induction of apoptosis (in words) (RKO cells; after 24 hours): induces significant apoptosis
- fold induction at 1 µM (H1299 cells; 24 hrs): 1
- fold induction at 3.3 µM (H1299 cells; 24 hrs): 3
- fold induction at 10 µM (H1299 cells; 24 hrs): 2
- fold induction at 1 µM (H1299 cells; 48 hrs): 1
- fold induction at 3.3 µM (H1299 cells; 48 hrs): 10
- fold induction at 10 µM (H1299 cells; 48 hrs): 12
- fold induction at 1 µM (H1299 cells; 72 hrs): 1
- fold induction at 3.3 µM (H1299 cells; 72 hrs): 17
- fold induction at 10 µM (H1299 cells; 72 hrs): 20
- Induction of apoptosis (in words) [1]: significant induction of apoptosis
